# Where “and” joins values, the source holds several entries; their conditions need not be identical. Equal values may be shown once.
# Target: T1, AaegOR6 (Aedes aegypti, UniProt A0A1S4G757)
# T1 sequence (A0A1S4G757 1-398): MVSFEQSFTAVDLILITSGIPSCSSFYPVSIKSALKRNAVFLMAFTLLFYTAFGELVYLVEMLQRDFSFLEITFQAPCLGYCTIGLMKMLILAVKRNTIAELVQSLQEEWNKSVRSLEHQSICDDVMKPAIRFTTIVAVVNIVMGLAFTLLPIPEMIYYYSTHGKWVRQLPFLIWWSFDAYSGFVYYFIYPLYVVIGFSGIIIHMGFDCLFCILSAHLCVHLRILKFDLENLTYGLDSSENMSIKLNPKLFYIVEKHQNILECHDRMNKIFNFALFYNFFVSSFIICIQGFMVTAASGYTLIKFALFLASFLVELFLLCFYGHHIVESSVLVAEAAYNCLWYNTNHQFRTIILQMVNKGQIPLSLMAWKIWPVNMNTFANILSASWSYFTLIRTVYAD
# T1 sequence (Q178U6 1-478 partner): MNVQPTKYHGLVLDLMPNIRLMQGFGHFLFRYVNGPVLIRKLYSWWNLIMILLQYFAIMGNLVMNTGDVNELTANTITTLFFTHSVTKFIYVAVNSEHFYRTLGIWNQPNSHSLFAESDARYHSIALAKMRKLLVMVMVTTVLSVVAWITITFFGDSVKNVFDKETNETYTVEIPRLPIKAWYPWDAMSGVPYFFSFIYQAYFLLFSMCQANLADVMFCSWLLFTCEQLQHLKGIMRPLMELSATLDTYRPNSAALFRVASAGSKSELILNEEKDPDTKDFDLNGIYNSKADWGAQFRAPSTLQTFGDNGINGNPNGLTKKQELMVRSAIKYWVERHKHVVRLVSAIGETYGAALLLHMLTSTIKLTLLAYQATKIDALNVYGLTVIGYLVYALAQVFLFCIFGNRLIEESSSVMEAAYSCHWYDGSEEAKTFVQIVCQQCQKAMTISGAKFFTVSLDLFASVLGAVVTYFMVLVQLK
# Assay: Two-electrode voltage clamp of Xenopus laevis oocytes expressing AaegOR6/Orco (blends, unitary compounds, concentration-response)
# Assay type: cell-based
# Conditions: AaegOR6/Orco expressing oocytes, TEVC, concentration-response of normalized current
# Excerpt: (§1) The coding regions of ten AaegOR genes of interest (S3 File) and AaegOrco were synthesized by Twist Bioscience (San Francisco, CA, USA) and cloned into the pENTR plasmid. The Gateway LR directional cloning system (Invitrogen Corp., Carlsbad, CA, USA) was utilized to subclone AaegOR coding regions into the pSP64t-RFA oocyte expression plasmid. Plasmids were purified using the GeneJet Plasmid Miniprep Kit (ThermoFisher Scientific, Waltham, MA, USA). Purified plasmids were sequenced in both directions to confirm coding regions.
# (§2) Chemical compounds (S6 File) used in the deorphanization of AaegORs were purchased from Acros Organics (Morris, NJ, USA), Alfa Aesar (Ward Hill, MA, USA), and ThermoFisher Scientific (Waltham, MA, USA) at the highest purity available. Compounds were stored as 1M stocks in 100% DMSO. Serial dilutions of each compound were prepared in 10% DMSO and blended by chemical class.
# (§3) pSP64t-RFA: AaegOR clones were linearized using Xbal, and cRNAs were synthesized using the mMESSAGE mMACHINE ® SP6 kit (Life Technologies, Carlsbad, CA, USA). Xenopus laevis stage V-VII oocytes purchased from Xenopus1 (Dexter, MI, USA) were stored at 18°C in Incubation medium (ND96 96 with 5% dialyzed horse serum, 50μg/mL gentamycin, 100μg/mL streptomycin, 100μg/mL penicillin, and 550μg/mL sodium pyruvate). 30nL of cRNA was injected into multiple oocytes using a microinjection syringe pump (World Precision Instruments, Sarasota, FL, USA) maintained at 18°C for 48–72 hrs. Odorant blends were perfused across individual oocytes for 10–15 seconds, held at a resting membrane potential of -80 mV using an OC-725C oocyte clamp (Warner Instruments, LLC, Hamden, CT, USA). Induced currents were measured indirectly using the two-electrode voltage clamp technique (TEVC). Following each stimulus, currents were allowed to return to baseline before further stimulation. Data was captured using the Digidata 1550 B digitizer and PClamp10 software (Molecular Devices, San Jose, CA, USA). Concentration-response curves were generated by perfusing unitary odorants over oocytes at increasing concentrations from [10^-3M] to [10^-9M]. Data were analyzed using GraphPad Prism 8 (GraphPad Software Inc., La Jolla, CA, USA). At least two biological replicates were conducted at each concentration and for each compound. Data for at least seven oocytes responding to each compound was analyzed (S7 File).
row,SMILES,EC50
1,"O=C1CCOc2ccccc21 [4-chromanone, 4-Chromanone]",~6.84 µM and 6.84 µM

# Same assay, conditions: Indoles 2 unitary compounds; oocyte 1
row,SMILES,Raw data (Responses in nA) Oocyte 1
1,O=C(O)Cc1c[nH]c2ccccc12 [1H-Indole-3-acetic acid],10.0 nA
2,OCc1c[nH]c2ccccc12 [3-Indolemethanol],0.0 nA
3,"O=C1CCOc2ccccc21 [4-chromanone, 4-Chromanone]",70.0 nA

# Same assay, conditions: Indoles 2 unitary compounds; oocyte 2
row,SMILES,Raw data (Responses in nA) Oocyte 2
1,O=C(O)Cc1c[nH]c2ccccc12 [1H-Indole-3-acetic acid],10.0 nA
2,OCc1c[nH]c2ccccc12 [3-Indolemethanol],0.0 nA
3,"O=C1CCOc2ccccc21 [4-chromanone, 4-Chromanone]",50.0 nA

# Same assay, conditions: Indoles 2 unitary compounds; oocyte 3
row,SMILES,Raw data (Responses in nA) Oocyte 3
1,O=C(O)Cc1c[nH]c2ccccc12 [1H-Indole-3-acetic acid],10.0 nA
2,OCc1c[nH]c2ccccc12 [3-Indolemethanol],10.0 nA
3,"O=C1CCOc2ccccc21 [4-chromanone, 4-Chromanone]",90.0 nA

# Same assay, conditions: Indoles 2 unitary compounds; oocyte 4
row,SMILES,Raw data (Responses in nA) Oocyte 4
1,O=C(O)Cc1c[nH]c2ccccc12 [1H-Indole-3-acetic acid],0.0 nA
2,OCc1c[nH]c2ccccc12 [3-Indolemethanol],0.0 nA
3,"O=C1CCOc2ccccc21 [4-chromanone, 4-Chromanone]",170.0 nA

# Same assay, conditions: Indoles 2 unitary compounds; oocyte 5
row,SMILES,Raw data (Responses in nA) Oocyte 5
1,O=C(O)Cc1c[nH]c2ccccc12 [1H-Indole-3-acetic acid],10.0 nA
2,OCc1c[nH]c2ccccc12 [3-Indolemethanol],0.0 nA
3,"O=C1CCOc2ccccc21 [4-chromanone, 4-Chromanone]",70.0 nA

# Same assay, conditions: Indoles 2 unitary compounds; oocyte 6
row,SMILES,Raw data (Responses in nA) Oocyte 6
1,O=C(O)Cc1c[nH]c2ccccc12 [1H-Indole-3-acetic acid],0.0 nA
2,OCc1c[nH]c2ccccc12 [3-Indolemethanol],0.0 nA
3,"O=C1CCOc2ccccc21 [4-chromanone, 4-Chromanone]",650.0 nA

# Same assay, conditions: Indoles 2 unitary compounds; oocyte 7
row,SMILES,Raw data (Responses in nA) Oocyte 7
1,O=C(O)Cc1c[nH]c2ccccc12 [1H-Indole-3-acetic acid],0.0 nA
2,OCc1c[nH]c2ccccc12 [3-Indolemethanol],0.0 nA
3,"O=C1CCOc2ccccc21 [4-chromanone, 4-Chromanone]",510.0 nA

# Same assay, conditions: Indoles 2 unitary compounds; oocyte 8
row,SMILES,Raw data (Responses in nA) Oocyte 8
1,O=C(O)Cc1c[nH]c2ccccc12 [1H-Indole-3-acetic acid],0.0 nA
2,OCc1c[nH]c2ccccc12 [3-Indolemethanol],0.0 nA
3,"O=C1CCOc2ccccc21 [4-chromanone, 4-Chromanone]",510.0 nA

# Target: T2, AaegOR71 (Aedes aegypti, UniProt A0A3S7SHD4)
# T2 sequence (A0A3S7SHD4 1-415): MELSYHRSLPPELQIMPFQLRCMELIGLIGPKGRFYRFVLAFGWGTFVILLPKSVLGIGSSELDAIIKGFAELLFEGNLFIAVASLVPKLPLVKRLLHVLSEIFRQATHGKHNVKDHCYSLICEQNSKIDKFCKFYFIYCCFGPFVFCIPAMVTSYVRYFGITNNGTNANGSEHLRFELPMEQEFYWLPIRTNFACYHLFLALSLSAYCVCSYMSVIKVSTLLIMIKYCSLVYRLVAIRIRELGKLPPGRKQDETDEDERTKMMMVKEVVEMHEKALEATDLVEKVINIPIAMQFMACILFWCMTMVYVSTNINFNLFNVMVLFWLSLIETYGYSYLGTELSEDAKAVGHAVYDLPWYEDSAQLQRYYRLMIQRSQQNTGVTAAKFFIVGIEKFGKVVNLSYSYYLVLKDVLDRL
# T2 sequence (Q178U6 1-478 partner): T1 sequence (Q178U6 1-478 partner)
# Assay: Two-electrode voltage clamp of Xenopus laevis oocytes expressing AaegOR71/Orco (blends, unitary compounds, concentration-response)
# Assay type: cell-based
# Conditions: Indoles 2 unitary compounds; oocyte 1
# Excerpt: as §1, §2, §3
row,SMILES,Raw Data (Response in nA) Oocyte 1
1,O=C(O)Cc1c[nH]c2ccccc12 [1H-Indole-3-acetic acid],0 nA
2,OCc1c[nH]c2ccccc12 [3-Indolemethanol],240 nA
3,"O=C1CCOc2ccccc21 [4-chromanone, 4-Chromanone]",0 nA

# Same assay, conditions: Indoles 2 unitary compounds; oocyte 2
row,SMILES,Raw Data (Response in nA) Oocyte 2
1,O=C(O)Cc1c[nH]c2ccccc12 [1H-Indole-3-acetic acid],20 nA
2,OCc1c[nH]c2ccccc12 [3-Indolemethanol],0 nA
3,"O=C1CCOc2ccccc21 [4-chromanone, 4-Chromanone]",310 nA

# Same assay, conditions: Indoles 2 unitary compounds; oocyte 3
row,SMILES,Raw Data (Response in nA) Oocyte 3
1,O=C(O)Cc1c[nH]c2ccccc12 [1H-Indole-3-acetic acid],0 nA
2,OCc1c[nH]c2ccccc12 [3-Indolemethanol],0 nA
3,"O=C1CCOc2ccccc21 [4-chromanone, 4-Chromanone]",15 nA

# Same assay, conditions: Indoles 2 unitary compounds; oocyte 4
row,SMILES,Raw Data (Response in nA) Oocyte 4
1,O=C(O)Cc1c[nH]c2ccccc12 [1H-Indole-3-acetic acid],15 nA
2,OCc1c[nH]c2ccccc12 [3-Indolemethanol],0 nA
3,"O=C1CCOc2ccccc21 [4-chromanone, 4-Chromanone]",140 nA

# Same assay, conditions: Indoles 2 unitary compounds; oocyte 5
row,SMILES,Raw Data (Response in nA) Oocyte 5
1,O=C(O)Cc1c[nH]c2ccccc12 [1H-Indole-3-acetic acid],20 nA
2,OCc1c[nH]c2ccccc12 [3-Indolemethanol],0 nA
3,"O=C1CCOc2ccccc21 [4-chromanone, 4-Chromanone]",15 nA

# Same assay, conditions: Indoles 2 unitary compounds; oocyte 6
row,SMILES,Raw Data (Response in nA) Oocyte 6
1,O=C(O)Cc1c[nH]c2ccccc12 [1H-Indole-3-acetic acid],60 nA
2,OCc1c[nH]c2ccccc12 [3-Indolemethanol],0 nA
3,"O=C1CCOc2ccccc21 [4-chromanone, 4-Chromanone]",60 nA

# Same assay, conditions: Indoles 2 unitary compounds; oocyte 7
row,SMILES,Raw Data (Response in nA) Oocyte 7
1,O=C(O)Cc1c[nH]c2ccccc12 [1H-Indole-3-acetic acid],15 nA
2,OCc1c[nH]c2ccccc12 [3-Indolemethanol],0 nA
3,"O=C1CCOc2ccccc21 [4-chromanone, 4-Chromanone]",30 nA

# Same assay, conditions: Indoles 2 unitary compounds; oocyte 8
row,SMILES,Raw Data (Response in nA) Oocyte 8
1,O=C(O)Cc1c[nH]c2ccccc12 [1H-Indole-3-acetic acid],60 nA
2,OCc1c[nH]c2ccccc12 [3-Indolemethanol],0 nA
3,"O=C1CCOc2ccccc21 [4-chromanone, 4-Chromanone]",20 nA
